Data set [1] deals with T1, P-glycoprotein (PGP) (Homo sapiens, UniProt P08183). Nature of the data set: Bidirectional digoxin Pgp transport across C2BBe1 monolayers. The conditions noted are these: Caco-2, pH 7.4.
The subject of data set [2] is P-gp. Nature of the data set: Bidirectional digoxin Pgp transport across MDCK monolayers. The conditions noted are these: dog, MDCK-MDR1, pH 7.4, Pgp transport.
Data set [3] deals with P-gp (PGP) (Homo sapiens, UniProt P08183). Nature of the data set: in vitro. The conditions noted are these: Caco-2, pH 7.4, Pgp transport, Papp B->A. Background: Passage across Caco-2 layers is used to estimate intestinal permeability.
For data set [4], the target named is T2, PGP (Homo sapiens, UniProt P08183). Description: in vitro. The conditions noted are these: Caco-2, pH 7.4, Pgp transport.
The target of data set [5] is T2, PGP. Description: Bidirectional digoxin Pgp transport across Caco-2 monolayers. The conditions noted are these: Caco-2, pH 7.4.
For data set [6], the target named is T1, P-glycoprotein (PGP). Nature of the data set: in vitro. The conditions noted are these: Caco-2, pH 7.4, Pgp transport.
Data set [7] deals with P-gp. Nature of the data set: Bidirectional digoxin Pgp transport across MDR-MDCK monolayers. The conditions noted are these: human, MDCK-MDR1, pH 7.4, Pgp transport.
Data set [8] relates to human P-glycoprotein (PGP). The description is as above. The conditions noted are these: dog, MDCK-MDR1, pH 7.4, Pgp transport; for Papp A→B at 2 h, 10 µM / Papp B→A at 2 h, 10 µM: assayed day 12.
A short description of data set [9]: in vitro. The conditions noted are these: human, Caco-2, pH 7.4, Passive diffusion.
Data set [10] relates to Caco-2 cell monolayers. Description: Sodium butyrate supplementation of medium of Caco-2 monolayers, 7-day culture procedure, simulated transport. The class given is cell-based, human. How it is done: Caco-2 cells were used to assess whether cells grown using the 7-day culture procure were likely to yield intact cell monolayers following shipment. To shorten the period required for cell monolayer formation the seeding density for each Transwell® insert was increased to 240,000 cells per cm^2 (rather than 60,000 cells/cm^2). Once plated, the cells were incubated overnight at 37° C. with 0.5 mL of medium (90% Dulbecco's Modified Eagle Medium supplemented with 10% fetal bovine serum) in the apical chamber and 1.5 mL of medium in the basolateral chamber to allow for attachment to the Transwell®. Adherent cells were provided with fresh cell culture medium for the next two days. The cells were then left on a laboratory bench, at room temperature, overnight to simulate transport conditions. In order to simulate receipt of transported cells, the next day the Transwell® inserts were removed from tissue culture plates containing 0.75% agarose medium and moved to a new plate containing fresh tissue culture medium. The cell monolayers were then incubated for 3 or 6 days under normal growth conditions before they were tested for membrane integrity and permeability. […]

The mark [11] stands for this setting: Table 9 control, assayed day 10.
[12] abbreviates: Table 9 shipped, 0.75% agarose media basolateral only, assayed day 10.
Setting [13] is: Table 12 control, 7 d in culture.
Where [14] appears, read: Table 12 shipped overnight by air, 0.75% agarose medium basolateral only, 9 d in culture.
Setting [15] is: Table 10 control, assayed day 12.
Where [16] appears, read: Table 13 MDR1-MDCK control, 7 d in culture.
Where [17] appears, read: Table 13 MDR1-MDCK shipped overnight by air, 0.75% agarose medium basolateral only, 10 d in culture.
Where [18] appears, read: air cargo shipped (three days in transit), 0.75% agarose media basolateral only, assayed day 12.
Where [19] appears, read: Table 5 control, not shipped, assayed 7 D.
Setting [20] is: Table 6 shipped at 5 D, 0.5% agarose medium basolateral only, assayed 10 D.
[21] abbreviates: Table 7 shipped at day 6, 0.5% agarose medium basolateral only.
[22] abbreviates: shipped, 0.5% agarose medium apical only, Table 5 lower block c1, assayed 7 D.
The mark [23] stands for this setting: shipped, 0.5% agarose medium apical only, Table 5 lower block c2, assayed 7 D.
[24] abbreviates: shipped, 0.5% agarose medium apical only, Table 5 upper block c1, assayed 7 D.
The mark [25] stands for this setting: shipped, 0.5% agarose medium apical only, Table 5 upper block c2, assayed 7 D.
The mark [26] stands for this setting: shipped, 0.5% agarose medium apical only, Table 5 upper block c4, assayed 7 D.
Setting [27] is: shipped, 0.5% agarose medium basolateral only, assayed 7 D.

One may read the Papp B→A as the apparent permeability from the basolateral to the apical side of a cell layer. As usually defined, the Papp A→B is the apparent permeability from the apical to the basolateral side of a cell layer.

T2 sequence (P08183 whole entry): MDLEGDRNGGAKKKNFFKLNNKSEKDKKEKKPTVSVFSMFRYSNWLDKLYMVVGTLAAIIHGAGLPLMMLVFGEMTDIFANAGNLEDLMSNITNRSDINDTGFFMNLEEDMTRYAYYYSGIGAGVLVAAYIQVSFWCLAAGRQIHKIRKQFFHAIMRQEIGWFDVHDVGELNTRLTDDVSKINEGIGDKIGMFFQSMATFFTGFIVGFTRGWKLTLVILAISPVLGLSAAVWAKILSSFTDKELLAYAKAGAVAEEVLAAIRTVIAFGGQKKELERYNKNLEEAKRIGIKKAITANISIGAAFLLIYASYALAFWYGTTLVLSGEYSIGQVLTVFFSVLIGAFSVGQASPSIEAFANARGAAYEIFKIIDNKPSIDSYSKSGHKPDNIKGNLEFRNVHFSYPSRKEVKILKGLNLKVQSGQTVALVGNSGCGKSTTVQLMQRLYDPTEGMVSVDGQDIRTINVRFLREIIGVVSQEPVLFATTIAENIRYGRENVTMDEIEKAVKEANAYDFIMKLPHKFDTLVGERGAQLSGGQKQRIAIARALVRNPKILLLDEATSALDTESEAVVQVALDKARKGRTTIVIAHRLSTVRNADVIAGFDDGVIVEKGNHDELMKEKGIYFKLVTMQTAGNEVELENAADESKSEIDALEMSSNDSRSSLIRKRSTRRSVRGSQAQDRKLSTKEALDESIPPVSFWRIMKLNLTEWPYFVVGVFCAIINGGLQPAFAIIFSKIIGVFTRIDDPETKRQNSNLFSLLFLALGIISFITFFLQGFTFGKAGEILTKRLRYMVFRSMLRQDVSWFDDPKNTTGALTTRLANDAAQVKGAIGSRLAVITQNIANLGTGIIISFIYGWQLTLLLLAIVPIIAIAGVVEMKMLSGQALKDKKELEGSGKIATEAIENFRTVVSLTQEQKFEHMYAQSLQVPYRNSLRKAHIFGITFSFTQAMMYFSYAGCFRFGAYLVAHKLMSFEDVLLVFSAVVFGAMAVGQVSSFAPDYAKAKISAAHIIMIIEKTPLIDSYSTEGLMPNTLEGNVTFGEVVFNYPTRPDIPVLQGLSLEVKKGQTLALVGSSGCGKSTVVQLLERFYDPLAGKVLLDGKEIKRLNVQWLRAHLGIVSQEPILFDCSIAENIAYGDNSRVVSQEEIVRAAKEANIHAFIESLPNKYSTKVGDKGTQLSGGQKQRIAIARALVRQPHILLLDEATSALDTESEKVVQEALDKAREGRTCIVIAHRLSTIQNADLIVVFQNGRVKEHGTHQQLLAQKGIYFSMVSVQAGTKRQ
T1 sequence (P08183 whole entry): as above
Chain of P-gp (PGP) (P08183 whole entry): as above

For the molecule `C[C@H]1O[C@@H](O[C@H]2[C@@H](O)C[C@H](O[C@H]3[C@@H](O)C[C@H](O[C@H]4CC[C@@]5(C)[C@H](CC[C@@H]6[C@@H]5C[C@@H](O)[C@]5(C)[C@@H](C7=CC(=O)OC7)CC[C@]65O)C4)O[C@@H]3C)O[C@@H]2C)C[C@H](O)[C@@H]1O` [Digoxin, digoxin], the Papp B→A at 2 h, 10 µM in [1] amounted to 5.67 ×10⁻⁶ cm/s; in data set [2] (setting [11]), 0.94 ×10⁻⁶ cm/s; in data set [2] (setting [12]) it was 3.83 ×10⁻⁶ cm/s; in data set [2] (setting [13]), 6.92 ×10⁻⁶ cm/s; in data set [2] (setting [14]) it was 7.44 ×10⁻⁶ cm/s; in [4] (Papp B->A), 15.2 ×10⁻⁶ cm/s. Moreover, the Papp B→A at 2 h, 10 µM was 6.86 ×10⁻⁶ cm/s in [6]; 10.9 ×10⁻⁶ cm/s in [7] (setting [15]); 12.6 ×10⁻⁶ cm/s in data set [7] (setting [16]); 20.1 ×10⁻⁶ cm/s in [7] (setting [17]); 13.1 ×10⁻⁶ cm/s in data set [7] (setting [18]); 6.37 ×10⁻⁶ cm/s in data set [8] (Table 7 control). For the same molecule, the Papp B→A at 2 h, 10 µM in data set [8] (setting [21]) came to 6.4 ×10⁻⁶ cm/s. Further, the apical-to-basolateral permeability (Papp A→B) at 2 h, 10 µM worked out at 0.2 ×10⁻⁶ cm/s in data set [2] (setting [11]); 0.04 ×10⁻⁶ cm/s in data set [2] (setting [12]); 0.12 ×10⁻⁶ cm/s in data set [2] (setting [13]); 0.16 ×10⁻⁶ cm/s in data set [2] (setting [14]); 1.13 ×10⁻⁶ cm/s in data set [4] (Papp A->B); 0.04 ×10⁻⁶ cm/s in [7] (setting [15]). For the same molecule, the Papp A→B at 2 h, 10 µM stood at 0.02 ×10⁻⁶ cm/s in data set [7] (setting [16]); 0.09 ×10⁻⁶ cm/s in [7] (setting [17]); 0.07 ×10⁻⁶ cm/s in data set [7] (setting [18]); 0.15 ×10⁻⁶ cm/s in [8] (Table 7 control); 0.09 ×10⁻⁶ cm/s in data set [8] (setting [21]). The apparent permeability from basolateral to apical (Papp B→A) at 120 min, 10 µM worked out at 21.9 ×10⁻⁶ cm/s in data set [3]; 21.6 ×10⁻⁶ cm/s in data set [4] (Papp B->A); 6.7 ×10⁻⁶ cm/s in [8] (setting [19]); 10.8 ×10⁻⁶ cm/s in data set [8] (Table 6 control, assayed 10 D); 9.14 ×10⁻⁶ cm/s in data set [8] (setting [20]); 7.05 ×10⁻⁶ cm/s in data set [8] (setting [22]). Further, the Papp B→A at 120 min, 10 µM worked out at 8.27 ×10⁻⁶ cm/s in [8] (setting [23]); 5.24 ×10⁻⁶ cm/s in data set [8] (setting [24]); 6.19 ×10⁻⁶ cm/s in [8] (setting [25]); 4.65 ×10⁻⁶ cm/s in [8] (shipped, 0.5% agarose medium apical only, Table 5 upper block c3, assayed 7 D); 6.39 ×10⁻⁶ cm/s in data set [8] (setting [26]); 6.09 ×10⁻⁶ cm/s in data set [8] (setting [27]). Also, the Papp A→B at 120 min, 10 µM in data set [5] is 0.66 ×10⁻⁶ cm/s; in data set [8] (setting [19]), 0.1 ×10⁻⁶ cm/s; in data set [8] (Table 6 control, assayed 10 D), 0.15 ×10⁻⁶ cm/s; in data set [8] (setting [20]) it was 0.21 ×10⁻⁶ cm/s; in data set [8] (setting [22]) it was 0.18 ×10⁻⁶ cm/s; in data set [8] (setting [23]), 0.09 ×10⁻⁶ cm/s. The Papp A→B at 120 min, 10 µM in data set [8] (setting [24]) worked out at 0.11 ×10⁻⁶ cm/s; in [8] (setting [25]), 0.06 ×10⁻⁶ cm/s; in data set [8] (setting [26]), 0.07 ×10⁻⁶ cm/s; in [8] (setting [27]), 0.06 ×10⁻⁶ cm/s.
`CC(C)NCC(O)COc1cccc2[nH]ccc12` (stereo not shown) [Pindolol, pindolol] gave a Papp A→B at 2 h in data set [9] of 14.2 ×10⁻⁶ cm/s.
Regarding `CCCC(=O)[O-].[Na+]` [sodium butyrate], in data set [10] (4 mM in medium for three days prior to simulated transport, not following transport), the “effect on cell monolayer integrity and permeability following transport” value was “adversely affects monolayer integrity and permeability following transport”. Besides, in data set [10] (added to tissue culture medium following simulated transport, not prior to transport), the “effect on cell monolayer integrity or permeability” value is on record as “does not disrupt cell monolayer integrity or permeability”.

Values taken from patent publication US20100047907A1, “METHODS OF TRANSPORTING EPITHELIAL CELL MONOLAYERS” (Absorption System Group LLC, priority 2008, published 2010).
